{
  "source": "paper PMC6796385",
  "about": "“Characterizing potential repelling volatiles for “push-pull” strategy against stem borer: a case study in Chilo auricilius” (BMC Genomics, 2019)",
  "biological_target": "CSP8 (chemosensory protein 8)",
  "assay": "direct fluorescence titration of purified CSP8 with the fluorescent probe, Scatchard plot",
  "format": "binding, Chilo auricilius",
  "data": [
    {"smiles": "c1ccc(Nc2cccc3ccccc23)cc1", "note": "[1-NPN, N-phenyl-1-naphthylamine]", "values": [
      {"measurement": "Kd", "result": "4 ± 0.13", "unit": "µM"}
    ]}
  ]
}
